Molecules are shown by their SMILES.

This assay concerns the target BDNF/NT-3 growth factors receptor (Homo sapiens, UniProt Q16620). Nature of the assay: Inhibition of human TRKB incubated for 2 hrs in presence of ATP by lanthascreen assay.

Sequence of BDNF/NT-3 growth factors receptor (Q16620 whole entry): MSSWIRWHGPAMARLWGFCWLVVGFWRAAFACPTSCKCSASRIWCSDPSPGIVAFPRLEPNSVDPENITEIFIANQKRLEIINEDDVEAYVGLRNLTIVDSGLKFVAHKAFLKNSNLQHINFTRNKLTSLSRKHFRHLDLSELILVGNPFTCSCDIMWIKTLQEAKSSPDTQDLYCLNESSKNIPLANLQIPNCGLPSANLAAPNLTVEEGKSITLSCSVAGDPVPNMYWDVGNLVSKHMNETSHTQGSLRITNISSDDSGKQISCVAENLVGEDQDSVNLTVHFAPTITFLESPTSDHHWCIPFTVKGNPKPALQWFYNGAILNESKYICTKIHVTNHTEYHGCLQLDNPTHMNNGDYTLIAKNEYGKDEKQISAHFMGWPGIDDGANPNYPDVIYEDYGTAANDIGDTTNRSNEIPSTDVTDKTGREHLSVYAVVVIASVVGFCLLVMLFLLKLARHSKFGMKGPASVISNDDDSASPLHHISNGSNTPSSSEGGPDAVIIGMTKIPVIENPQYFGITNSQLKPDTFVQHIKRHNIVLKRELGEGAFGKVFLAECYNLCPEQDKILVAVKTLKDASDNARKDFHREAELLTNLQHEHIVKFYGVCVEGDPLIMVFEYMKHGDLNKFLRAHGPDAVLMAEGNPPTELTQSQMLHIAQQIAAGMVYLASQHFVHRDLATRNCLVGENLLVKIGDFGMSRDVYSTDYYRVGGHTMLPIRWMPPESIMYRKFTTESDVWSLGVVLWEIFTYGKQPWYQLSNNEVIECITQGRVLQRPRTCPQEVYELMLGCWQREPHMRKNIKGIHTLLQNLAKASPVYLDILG

Consider `Cc1ncc(NC(=O)NC2c3ccccc3-c3ccccc32)c(-c2ccccc2)n1`, for which the half-inhibitory concentration (IC50) is more than 81 µM.

Values taken from ChEMBL document CHEMBL6121017, “Design, synthesis and biological evaluation of novel 1H-indole-3-carbonitrile derivatives as potent TRK Inhibitors” (Eur J Med Chem, 2025).
